The source made the active and inactive calls. The calls are words filed in the database; no cut-off is given here.

Data on three compounds can be found in ChEMBL document CHEMBL1649276, “Phenylbutyrate induces antimicrobial peptide expression” (2009).

The test system of test [1] is VA10. In words: Induction of CAMP mRNA expression in human VA10 cells at 4 mM after 24 hrs by RT-PCR analysis. In kind it is functional, cell-based.
Test [2] deals with VA10. In words: Induction of LL-37 protein expression in human VA10 cells at 4 mM after 24 hrs by Western blotting. Format: functional, cell-based. A general note: Immunoblotting shows a protein as a band on a membrane.
The subject of test [3] is U-937. In words: Induction of DEFB1 mRNA expression in human U937 cells at 4 mM after 24 to 48 hrs by RT-PCR analysis. Format: functional, cell-based.
Test [4] relates to HT-29. In words: Induction of CAMP mRNA expression in human HT-29 cells at 4 mM after 8 to 48 hrs by RT-PCR analysis. Format: functional, cell-based.
For test [5], the system named is VA10. In words: Induction of CAMP mRNA expression in human VA10 cells at 4 mM after 24 hrs by RT-PCR analysis in presence of ERK1/2 inhibitor U0126 treated 1 hr before compound challenge. Format: functional, cell-based.
The test system of test [6] is VA10. In words: Induction of CAMP mRNA expression in human VA10 cells at 4 mM after 24 hrs by RT-PCR analysis in presence of protein synthesis inhibitor CHX treated 1 hr before compound challenge. In kind it is functional, cell-based.
Test [7] concerns U-937. In words: Induction of CAMP mRNA expression in human U937 cells at 4 mM after 8 to 48 hrs by RT-PCR analysis. In kind it is functional, cell-based.
Test [8] deals with VA10. In words: Induction of CAMP mRNA expression in human VA10 cells at 4 mM after 24 hrs by RT-PCR analysis in presence of p38 kinase inhibitor SB203580 treated 1 hr before compound challenge. In kind it is functional, cell-based.
Test [9] concerns VA10. In words: Induction of DEFB4 mRNA expression in human VA10 cells at 4 mM after 24 hrs by RT-PCR analysis. In kind it is functional, cell-based.
Test [10] has as its system VA10. In words: Induction of DEFB3 mRNA expression in human VA10 cells at 4 mM after 24 hrs by RT-PCR analysis. Format: functional, cell-based.
Test [11] has as its system A498. In words: Induction of CAMP mRNA expression in human A498 cells at 4 mM after 8 to 48 hrs by RT-PCR analysis. Format: functional, cell-based.
Test [12] deals with VA10. In words: Induction of DEFB1 mRNA expression in human VA10 cells at 4 mM after 24 hrs by RT-PCR analysis. Format: functional, cell-based.
Test [13] has as its system VA10. In words: Induction of CAMP mRNA expression in human VA10 cells at 4 mM after 24 hrs by RT-PCR analysis in presence of JNK inhibitor SP600125 treated 1 hr before compound challenge. Format: functional, cell-based.
In test [14] the test system is VA10. In words: Induction of CAMP mRNA expression in human VA10 cells after 48 hrs by RT-PCR analysis. In kind it is functional, cell-based.
Test [15] deals with VA10. In words: Induction of DEFB2 mRNA expression in human VA10 cells at 4 mM after 24 hrs by RT-PCR analysis. In kind it is functional, cell-based.
For test [16], the system named is VA10. In words: Induction of CAMP mRNA expression in human VA10 cells at 4 mM by RT-PCR analysis. In kind it is functional, cell-based. The conditions noted are these: TDE = time-dependent effect.
Test [17] in a line: Induction of CAMP mRNA expression in human VA10 cells at 4 mM after 24 hrs by RT-PCR analysis in presence of 1,25(OH)2D3 relative to control. In kind it is functional.
Test [18] relates to VA10. In words: Induction of LL-37 protein expression in human VA10 cells at 20 nM after 24 hrs by Western blotting. In kind it is functional, cell-based.

Consider `CC(Cc1ccccc1)C(=O)O` (stereo not given), for which, in test [1], the result was Active.
Same read-out and setting: for `CCC(C)(C)C(=O)O` the value was “inactive”.
As to `O=C([O-])CCCc1ccccc1.[Na+]` [SODIUM PHENYLBUTYRATE], the outcome in test [2], in [4], in test [7], in test [11], in test [1] and in test [12] was Active. Also, the result in test [18] was Active. The outcome in [3], in test [5], in [6], in test [8], in test [9] and in test [10] was inactive. The outcome in [13] and in test [15] was inactive. For the same compound, the Activity entry in test [14] is “Dose-dependent effect”; in test [16] it was “tde”. For the same compound, in test [17], the “fold change (FC)” value came out at 100.
